For experiment [1], the system named is association of beta-arrestin2 and ubiquitin. Put plainly: beta-arrestin2/ubiquitin PCA (ubiquitination of beta-arrestin2). Format: cell-based. The settings on record: for beta-arrestin2/ubiquitin assay fluorescence, positive pixel mean (PPM) as percent of control (FIG. 12): versus negative control (vehicle alone). The text has this:
To illustrate another example of a novel assay constructed using the methods provided herein, we developed a protein-fragment complementation assay to measure the association of beta-arrestin2 and ubiquitin (see FIGS. 11-12) using the methods described here. Ubiquitin is a highly conserved 76-amino acid polypeptide. Since its discovery in the mid-1970s, ubiquitin has been associated with cellular house-keeping functions such as eliminating damaged proteins. It has recently become clear that ubiquitin is involved in a variety of other vital processes at different subcellular locations ranging from the plasma membrane to the nucleus, including cell-cycle progression, signal transduction, transcriptional regulation, receptor down-regulation, and endocytosis. Ubiquitin is covalently attached to proteins through an isopeptide bond between its carboxy-terminal glycine and the epsilon-amino group of lysines in the target protein. This attachment is catalyzed by enzymes that activate and ultimately conjugate the ubiquitin moiety to a lysine residue in the substrate. This can be followed by further additions of ubiquitin to specific lysine residues within the linked ubiquitin itself, resulting in a poly-ubiquitin chain. This covalent modification can be reversed by unique proteases specific for the iso-peptide linkage. Although ubiquitin is the best-characterized polypeptide modifier, other polypeptides (often referred to as Ubiquitin-like, or Ubl) are also conjugated to targets in analogous reactions. These ‘alternative’ modifiers, which differ from ubiquitin in sequence similarity but which are structurally similar to ubiquitin, include SUMO; Nedd8; Hub 1, ISG15 or UCRP; and Apg 12 (reviewed in Aguilar).
Previously, assays for ubiquitination have relied upon immunoblotting of proteins with anti-ubiquitin antibodies, or on labelling of proteins with a fluorophore-tagged ubiquitin polypeptide. […] FIGS. 11-12 show the results of the transient transfection of the PCA constructs. […] Since the process of ubiquitination targets proteins for degradation, we used ALLN (see Table 3 for concentration) to inhibit the proteasome activity of the cell in order to ensure that the arrestin/ubiquitin complex would accumulate in the cells and be detectable. […] The effects of Trichostatin A are particularly interesting in light of recent findings linking HDAC inhibition with the attenuation of cardiac hypertrophy induced by isoproterenol or by overexpression of proteins linked to cardiac growth and proliferation (Cardiac hypertrophy and histone deacetylase-dependent transcriptional repression mediated by the atypical homeodomain protein Hop; H. Kook, et al., J Clin Invest. 2003 September; 112(6):863-71). […]

Experiment [2] concerns the target T1, interaction of the beta-adrenergic receptor with beta-arrestin2 (Homo sapiens, UniProt P07550).
T1 construct: (Gly-Gly-Gly-Gly-Ser)2 linker between receptor and YFP[2]; YFP[2]; (EYFP amino acids 159-239); expressed in transfected cells
It is filed as cell-based. The settings on record: HEK293T stable line, 480 minutes, concentrations of Table 3.
Method: For the betaARR2/beta2AR, stable cell lines were generated.
Drug concentrations initially were chosen based on literature references and were further refined to ensure lack of toxicity in HEK293 cells, based on lactate dehydrogenase (LDH) toxicity analyses. All liquid handling steps were performed using the Biomek FX platform (Beckman Instruments, Fullerton, Calif.). Cells expressing the betaARR2/beta2AR PCA were incubated in cell culture medium containing drugs for 30 min., 90 min., and 8 hours. […] Cells were subsequently rinsed with HBSS (Invitrogen) and maintained in the same buffer during image acquisition. […] All treatment conditions were run in duplicate yielding a total of 8 images for each wavelength and treatment condition.
For these high-content assays, image analysis is needed to convert the acquired images into fluorescence intensity and, if desired, to resolve the subcellular distribution of the fluorescence signal. […] Raw images in 16-bit grayscale TIFF format were analyzed using ImageJ API/library as described in the literature. […] Next a threshold was established to separate the foreground from background. An iterative algorithm based on Particle Analyzer from ImageJ was applied to the thresholded Hoechst channel image (HI) to obtain the total cell count. The nuclear region of a cell (nuclear mask) was also derived from the thresholded HI. A WGA mask was generated similarly from the thresholded Texas Red image. […] To calculate the global background (gBG), a histogram was obtained from the un-thresholded YI and the pixel intensity of the lowest intensity peak was identified as gBG. […] The mean pixel intensity for all positive particles within each defined sub-region was calculated, resulting in 4 parameters: total positive pixel mean (MT, the mean intensity of the total particle fluorescence); Hoechst mean (M1, the mean intensity of the Hoechst defined region); Texas Red mean (M2, the mean intensity of the WGA-defined region); and Subtracted mean (M3, the mean intensity of the pixels excluded from the WGA- and Hoechst-defined regions). All means were corrected for the corresponding gBG.
For each set of experiments (assay+drug treatment+treatment time), positive pixel data from eight images were pooled. For each parameter, an outlier filter was applied to filter out those particles falling outside the range (mean±3SD) of the group. Next the sample mean or control mean for each parameter was obtained from each filtered group.

“Also recorded” adds a separate entry of the source. Non-standard residues stand in square brackets, D forms with d. Residues, ends and D or L forms follow the SMILES beside them. *: point of attachment. Nle = CCCC[C@H](N)C(=O)O; Cbz = O=C(OCc1ccccc1)*

As for `CCCC[C@@H](C=O)NC(=O)[C@H](CC(C)C)NC(=O)[C@H](CC(C)C)NC(C)=O` [ALLN] (Ac-Leu-Leu-[Nle]-aldehyde), the “beta-arrestin2/ubiquitin PCA signal with proteasome inhibitor (FIG. 11)” value in experiment [1] (transient transfection, absence of isoproterenol, ALLN at Table 3 concentration) is given as “clearly visible in the presence of ALLN; also recorded: Signal was apparent only in the presence”.
Consider `Cc1ccc(S(=O)(=O)/C=C/C#N)cc1` [BAY 11-7082], for which the “fluorescence intensity of the YFP channel as percent of control, later time points (FIG. 10)” value in experiment [2] was “had effects only at later time points”.
In the case of `CC(C)C[C@@H](C=O)NC(=O)[C@H](CC(C)C)NC(=O)[C@H](CC(C)C)NC(=O)OCc1ccccc1` [MG132] (Cbz-Leu-Leu-Leu-aldehyde), the “beta-arrestin2/ubiquitin assay fluorescence, positive pixel mean (PPM) as percent of control (FIG. 12)” value in experiment [1] is reported as “significantly increased the assay signal; also recorded: increased the signal fourfold”.
On to `CC(/C=C/C(=O)NO)=C\[C@@H](C)C(=O)c1ccc(N(C)C)cc1` [Trichostatin A], for which the “beta-arrestin2/ubiquitin assay fluorescence, positive pixel mean (PPM) as percent of control (FIG. 12)” value in experiment [1] is recorded as “significantly increased the assay signal; also recorded: increased the signal fourfold”.
Consider `CC(C)NCC(O)c1ccc(O)c(O)c1` (stereo not drawn) [isoproterenol], for which the “beta-arrestin2/ubiquitin PCA fluorescence intensity after agonist (FIG. 11)” value in experiment [1] (in the presence of ALLN, 60-120 minutes) is recorded as “caused a significant increase in fluorescence intensity; also recorded: caused a significant increase in signal”.
Regarding pertussis toxin, the “fluorescence intensity of the YFP channel as percent of control, later time points (FIG. 10)” value in experiment [2] is listed as “had effects only at later time points”.
